Assay results from EP0549433A1, “Use of N'-substituted N-phenylsulfonylureas in the treatment of hypertension in insulin-resistant patients” (ADIR ET COMPAGNIE, priority 1991, dated 1993).

System: rat âgé
Experiment: Chronic treatment of the aged rat: arterial blood pressure
Assay type: in vivo
Settings: young rat (3 months per Tableau 1); 0,1 à 1 mg /kg par jour for 2 weeks
Procedure: Etude du traitement chronique du rat âgé
Au cours du vieillissement, une insulino-résistance apparaît, accompagnée d'une hyperinsulinémie et d'une élévation de la pression artérielle (cf tableau 1 ci-après).
A titre d'exemple, le traitement par le gliclazide à la dose de 0,1 à 1 mg /kg par jour pendant 2 semaines, diminue la pression artérielle du rat âgé de 9.10² à 11.10² Pa sans modifier celle du rat jeune.

## Cc1ccc(S(=O)(=O)NC(=O)NN2CC3CCCC3C2)cc1 (stereo not shown) [gliclazide]
  pression artérielle du rat jeune: sans modifier
